Source: patent US12502403B2, “Tafoxiparin for the treatment of preeclampsia” (DILAFOR AB, priority 2020, dated 2025)
One block for each substance: values may come before it.

Key:
[1] = system: subcutaneous arteries; assay: Myograph: angiotensin II-induced contraction of subcutaneous artery segments after pre-treatment and placental vesicles; details: for contractile effect of AngII in the presence of PE: 10 μg/ml pre-incubation; for AUC / AUC/AUC (PE) % / % contractile change: AngII; for % contractile change: vs PE; for Emax [%] AngII: relative to 60 mM potassium contraction; for logEC50 AngII: EC50 of agonist AngII; for effect on Ang II mediated contraction with control P vesicles: vs vesicles only;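 on all read-outs here: wire myograph tension of human abdominal subcutaneous artery rings from Caesarean deliveries at 37 °C, 30 min pre-treatment, vesicles 30 min, then cumulative angiotensin II 10^−12 to 10^−6 M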
Excerpt: (§1) In a myograph model, arteries from subcutaneous tissue of women undergoing Caesarian section were used. The contractile effect of arteries comprising vesicles derived from placentas from pre-eclamptic women was compared with the contractile effect of arteries comprising vesicles derived from placentas from non-preeclamptic women. […] The Low Molecular Weight Heparin (LMWH) tinzaparin (Innohep®, Leo Pharma Denmark) was used as a comparator.
(§2) Subcutaneous arteries were removed from the subcutaneous fat of the abdomen during Caesarean section and immediately put in cold DMEM-medium. Arteries were dissected in cold Na-Krebs buffer at a pH of 7.3-7.4 and cut into ring segments with a length of 1-2 mm as previously shown. The sections were mounted on two 40 μm-diameter wires and connected to a device sensitive to vascular tension. The stretching force property of the arteries were recorded with Mulvany-Halpern myographs. The mounted arterial segments were immersed into temperature-controlled (+37° C.) tissue baths containing bicarbonate-based buffer solution gassed with carbogen to obtain a pH of 7.3-7.4. Each segment was stretched to 90% of the normal internal circumference, which is the size each segment would have in a transmural pressure of 100 mm Hg. The contractile capacity of each artery segment was checked by exposure to 60 mM KCl buffer solution twice or three times to study viability. After each the bath was washed and the tone returned to baseline. When stable, different molecules or receptor agonists are added to the baths in concentration-dependent manner to observe the vasomotor responses of the vessels.
(§3) The artery segments were studied by exposure to angiotensin II or endothelin 1 in cumulative concentrations of the agonists. […] In some experiments, 30 minutes after adding vesicles to the tissue baths concentration-contraction curves were obtained by cumulative application of angiotensin II (angiotensin 1 and 2 receptor agonist, concentration range 10^−12 to 10^−6 M). After washing and the tension returning to base line, agonists are added. After washing and the tension returning to base line endothelin 1 was added (endothelin A and B receptor agonist, concentration range 10^−11 to 10^−7 M).
(§4) After 30 minutes, non-preeclampsia vesicles as control (P) or pre-eclampsia (PE) vesicles were added at a concentration of 200 μg (protein concentration 40 μg/mL).
(§5) 30 minutes after adding vesicles to the tissue baths, concentration-contraction curves were obtained by cumulative application of angiotensin II (A9525 Sigma-Aldrich Angiotensin II human, powder CAS Number 4474-91-3 dissolved in sodium chloride to a concentration of 10^−3 M) and used in the concentration range 10^−12 to 10^−6 M. After wash-out and the tension had returned to base line, ET-1 (ALX-155-001, Enzo Life Sciences) was added and recorded (endothelin A and B receptor agonist, concentration range 10^−11 to 10^−7 M).

[2] = system: subcutaneous arteries; assay: Myograph: endothelin 1 (ET-1)-induced contraction of subcutaneous artery segments after pre-treatment and placental vesicles; format: cell-based, human; details: for contraction to ET-1 / AUC / AUC/AUC (PE) % / % contractile change: Example 5, 10 μg/ml pre-incubation then PE vesicles; for AUC / AUC/AUC (PE) % / % contractile change: ET-1, pooled from five patients; for % contractile change: vs PE; for reduction of contraction induced with ET-1: vs PE vesicles only; for Emax [%] ET-1: relative to 60 mM potassium contraction; for logEC50 ET-1: EC50 of agonist ET-1; for effect on ET-1 mediated contraction with control P vesicles: vs vesicles only
Excerpt: as §1, §2, §3, §4, §5

[3] = system: subcutaneous arteries; assay: Myograph: endothelial function (relaxation to substance P after potassium pre-contraction); format: cell-based, human
Method: In some experiments the endothelial function was tested by pre-contraction the vessels with 30 mM potassium buffer, giving a stable tone and endothelium function evaluated by exposure to substance P (10^−6 or 10^−5 M).

[4] = Example 3, 10 μg/ml pre-incubation then PE vesicles, pooled from four patients
[5] = Example 4, 100 μg/ml pre-incubation then PE vesicles
[6] = Example 4, 100 μg/ml pre-incubation then PE vesicles, pooled from five patients
[7] = patient 14, 10 μg/ml before PE-vesicles, vs PE vesicles only
[8] = patient 14, 10 μg/ml pre-treatment then PE vesicles
[9] = patient 14, drug only, no vesicles
[10] = patient 14, pre-treatment then P vesicles
[11] = patient 14, pre-treatment then PE vesicles
[12] = patient 14, control (P) vesicles
[13] = patient 14, 10 μg/ml before PE-vesicles
[14] = patient 13, 10 μg/ml pre-treatment then PE vesicles
[15] = patient 13, pre-treatment then P vesicles
[16] = patient 13, control (P) vesicles
[17] = patient 13, drug only, no vesicles

Substance: tafoxiparin
contractile effect of AngII in the presence of PE ([1]; Example 3): affect the contractile effect of AngII
AUC [1, 4]: 160.5
AUC/AUC (PE) % [1, 4]: 68.5%
% contractile change [1, 4]: −31.5%
AngII induced contraction [1, 5]: significantly decreased
AUC [1, 6]: 306.5
AUC/AUC (PE) % [1, 6]: 70.8%
% contractile change [1, 6]: −29%
reduction of contraction induced with angiotensin II [1, 7]: 79%
Emax [%] AngII [1, 8]: 27%
logEC50 AngII [1, 9]: 10.2
logEC50 AngII [1, 10]: 9.8
logEC50 AngII [1, 11]: 9.4
effect on Ang II mediated contraction with control P vesicles [1, 12]: little or no effect
Emax [%] AngII [1, 9]: 101%
Emax [%] AngII [1, 10]: 73%
contraction to ET-1 [2]: significantly lower contraction
AUC [2]: 193.1
AUC/AUC (PE) % [2]: 61.8%
% contractile change [2]: −38%
reduction of contraction induced with ET-1 [2, 13]: 56%
Emax [%] ET-1 [2, 8]: 77%
logEC50 ET-1 [2, 9]: 9.9
logEC50 ET-1 [2, 10]: 7.7
logEC50 ET-1 [2, 11]: 6.9
effect on ET-1 mediated contraction with control P vesicles [2, 12]: little or no effect
Emax [%] ET-1 [2, 9]: 180%
Emax [%] ET-1 [2, 10]: 105%
Endothelial function [%] [3, 9]: 85%
Endothelial function [%] [3, 10]: 22%
Endothelial function [%] [3, 11]: 67%

reduction of log EC50 (ET-1) ([2]; patient 13, 10 μg/ml before PE-vesicles, extrapolated): 35%
Substance: tinzaparin
contractile effect of AngII in the presence of PE ([1]; Example 3): affect the contractile response of AngII
AUC [1, 4]: 170.5
AUC/AUC (PE) % [1, 4]: 72.7%
% contractile change [1, 4]: −27.3%
AngII induced contraction [1, 5]: significantly decreased
AUC [1, 6]: 299.6
AUC/AUC (PE) % [1, 6]: 69.3%
% contractile change [1, 6]: −31%
reduction of maximum contraction induced by angiotensin II ([1]; patient 13, 10 μg/ml before PE-vesicles, vs PE vesicles only): 23%
Emax [%] AngII [1, 14]: 75%
logEC50 AngII [1, 15]: 10.8
effect on contraction in the presence of control vesicles (AngII) [1, 16]: did not appear to have any reducing effect
Emax [%] AngII [1, 17]: 69%
Emax [%] AngII ([1]; patient 13, pre-treatment then P (non-PE) vesicles): 103%
reduction of contraction induced with angiotensin II [1, 7]: 14%
Emax [%] AngII [1, 8]: 109%
logEC50 AngII [1, 10]: 10.0
logEC50 AngII [1, 11]: 10.0
effect on Ang II mediated contraction with control P vesicles [1, 12]: increased contraction
Emax [%] AngII [1, 10]: 135%
contraction to ET-1 [2]: significantly lower contraction
AUC [2]: 259.5
AUC/AUC (PE) % [2]: 83.1%
% contractile change [2]: −17%
contraction induced with ET-1 (the Emax) compared with PE vesicles only ([2]; patient 13, 10 μg/ml before PE-vesicles): the same
Emax [%] ET-1 [2, 14]: 143%
logEC50 ET-1 [2, 17]: 8.5
logEC50 ET-1 [2, 15]: 8.8
logEC50 ET-1 ([2]; patient 13, pre-treatment then PE vesicles (extrapolated)): 5.7
effect on contraction in the presence of control vesicles (ET-1) [2, 16]: did not appear to have any reducing effect
Emax [%] ET-1 [2, 17]: 144%
Emax [%] ET-1 [2, 15]: 166%
reduction of contraction induced with ET-1 [2, 13]: 15%
Emax [%] ET-1 [2, 8]: 147%
logEC50 ET-1 [2, 10]: 9.4
logEC50 ET-1 [2, 11]: 9.9
effect on ET-1 mediated contraction with control P vesicles [2, 12]: increased contraction
Emax [%] ET-1 [2, 10]: 197%
Endothelial function [%] [3, 17]: 96%
Endothelial function [%] ([3]; patient 13, pre-treatment then PE vesicles): 119.95%
Endothelial function [%] ([3]; patient 13, pre-treatment then non-preeclampsia (P) vesicles): 69.11%
Endothelial function [%] [3, 10]: 22%
Endothelial function [%] [3, 11]: 1%
